Our source for the inhibition and Activity values is ChEMBL document CHEMBL4414674, “Paraconiothins A-J: Sesquiterpenoids from the Endophytic Fungus Paraconiothyrium brasiliense ECN258” (J Nat Prod, 2019).

What all share (format): cell-based
In data set [1] the target is T1, Retinoic acid receptor alpha (Homo sapiens) (UniProt P10276).
T1 sequence (whole entry): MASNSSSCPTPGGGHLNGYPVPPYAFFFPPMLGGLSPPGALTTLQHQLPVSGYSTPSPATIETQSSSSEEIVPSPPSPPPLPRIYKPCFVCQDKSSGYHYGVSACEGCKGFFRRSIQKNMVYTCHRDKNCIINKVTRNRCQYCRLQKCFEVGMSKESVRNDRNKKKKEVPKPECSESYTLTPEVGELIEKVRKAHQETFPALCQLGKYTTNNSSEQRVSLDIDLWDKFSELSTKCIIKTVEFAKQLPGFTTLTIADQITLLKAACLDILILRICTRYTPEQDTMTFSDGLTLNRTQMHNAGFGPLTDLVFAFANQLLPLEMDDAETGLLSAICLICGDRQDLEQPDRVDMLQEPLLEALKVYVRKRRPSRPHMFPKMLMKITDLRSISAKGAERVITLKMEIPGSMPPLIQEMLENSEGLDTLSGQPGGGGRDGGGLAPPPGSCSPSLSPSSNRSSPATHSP
The experiment in a line: Inhibition of human RARalpha transfected in human HEK293 cells co-expressing CMV-beta galactosidase assessed as effect on beta-galactosidase activity at 50 uM after 48 hrs by luciferase reporter gene assay.

The target of data set [2] is T2, Peroxisome proliferator-activated receptor gamma (Homo sapiens) (UniProt P37231).
T2 sequence (whole entry): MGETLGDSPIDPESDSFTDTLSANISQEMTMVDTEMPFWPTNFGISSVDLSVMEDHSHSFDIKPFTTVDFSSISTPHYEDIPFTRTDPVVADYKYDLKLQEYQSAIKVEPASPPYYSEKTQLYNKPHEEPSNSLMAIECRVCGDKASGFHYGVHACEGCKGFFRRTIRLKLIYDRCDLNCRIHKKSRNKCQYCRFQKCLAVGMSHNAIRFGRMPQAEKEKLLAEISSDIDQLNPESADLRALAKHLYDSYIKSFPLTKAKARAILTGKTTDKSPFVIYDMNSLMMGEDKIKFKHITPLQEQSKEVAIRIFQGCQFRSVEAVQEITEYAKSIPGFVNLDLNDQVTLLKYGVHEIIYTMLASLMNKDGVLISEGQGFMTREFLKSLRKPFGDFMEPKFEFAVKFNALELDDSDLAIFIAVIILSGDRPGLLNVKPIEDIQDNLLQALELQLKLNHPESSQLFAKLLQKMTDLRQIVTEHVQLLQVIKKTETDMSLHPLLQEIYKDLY
The experiment in a line: Inhibition of PPARgamma (unknown origin) transfected in human HEK293 cells co-expressing CMV-beta galactosidase assessed as effect on beta-galactosidase activity at 50 uM after 48 hrs by luciferase reporter gene assay.

Data set [3] addresses T3, Peroxisome proliferator-activated receptor delta (Homo sapiens) (UniProt Q03181).
T3 sequence (whole entry): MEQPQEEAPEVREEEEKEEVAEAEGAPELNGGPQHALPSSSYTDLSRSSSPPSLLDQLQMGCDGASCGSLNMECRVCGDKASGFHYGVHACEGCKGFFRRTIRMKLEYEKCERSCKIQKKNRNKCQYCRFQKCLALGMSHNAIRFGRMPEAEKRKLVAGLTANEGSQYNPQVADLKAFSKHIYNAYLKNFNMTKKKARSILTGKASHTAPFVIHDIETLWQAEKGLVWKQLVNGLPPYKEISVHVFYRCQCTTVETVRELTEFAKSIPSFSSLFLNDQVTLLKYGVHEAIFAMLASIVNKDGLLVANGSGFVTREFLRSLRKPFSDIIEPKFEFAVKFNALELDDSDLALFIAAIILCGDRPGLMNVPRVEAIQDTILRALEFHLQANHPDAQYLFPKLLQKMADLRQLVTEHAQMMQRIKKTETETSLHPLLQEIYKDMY
The experiment in a line: Inhibition of PPARdelta (unknown origin) transfected in human HEK293 cells co-expressing CMV-beta galactosidase assessed as effect on beta-galactosidase activity at 50 uM after 48 hrs by luciferase reporter gene assay.

Data set [4] deals with T4, Oxysterols receptor LXR-alpha (Homo sapiens) (UniProt Q13133).
T4 sequence (whole entry): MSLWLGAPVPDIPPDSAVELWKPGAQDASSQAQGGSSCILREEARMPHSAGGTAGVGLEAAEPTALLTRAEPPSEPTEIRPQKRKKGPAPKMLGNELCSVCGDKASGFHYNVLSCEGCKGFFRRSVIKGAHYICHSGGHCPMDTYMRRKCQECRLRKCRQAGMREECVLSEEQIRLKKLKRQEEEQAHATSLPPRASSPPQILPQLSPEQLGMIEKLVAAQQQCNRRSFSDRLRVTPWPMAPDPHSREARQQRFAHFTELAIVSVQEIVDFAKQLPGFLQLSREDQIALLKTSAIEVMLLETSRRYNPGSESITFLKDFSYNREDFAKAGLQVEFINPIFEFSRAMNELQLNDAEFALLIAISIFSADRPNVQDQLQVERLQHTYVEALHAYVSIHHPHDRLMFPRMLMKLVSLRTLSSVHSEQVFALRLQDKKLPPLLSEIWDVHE
The experiment in a line: Inhibition of human LXRalpha transfected in human HEK293 cells co-expressing CMV-beta galactosidase assessed as inhibition on T0901317 response at 50 uM after 48 hrs by luciferase reporter gene assay.

A further data set has as its system HEK293. Briefly: Cytotoxicity against human HEK293 cells.

Structures are written as SMILES. Activity calls are given as the source filed them. The calls are words filed in the database; no cut-off is given here.

`C=C(CO)[C@@]12O[C@@H]1[C@@]1(C)C(=C[C@@H]2OC(C)=O)CC[C@@H](O)[C@@H]1C` (relative stereo): the inhibition entry in data set [1], in data set [2] and in data set [3] was “inactive” in each case.
Take `C[C@H]1CC(=O)C=C2C=CC(=C(CO)CO)[C@H](O)[C@@]21C`: the inhibition entry in data set [1], in data set [2] and in data set [3] was “inactive” each time.
For the compound `C=C(CO)[C@@]12O[C@@H]1[C@@]1(C)C(=C[C@@H]2O)C=C[C@@H](O)[C@@H]1C`, the inhibition entry in data set [1], in data set [2] and in data set [3] was “inactive” throughout.
On to `C=C(CO)[C@H]1CC=C2CC[C@@H](O)[C@H](C)[C@@]2(C)C1`, for which the inhibition result in data set [4] was “Active”. In addition, the inhibition entry in data set [1], in data set [2] and in data set [3] was “inactive” each time. Also, the Activity result in the data set with HEK293 is “Non-Toxic”.
With `C=C(CO)c1ccc([C@@H](O)[C@H](O)/C=C/C)c(C)c1` (relative stereo), the inhibition result in data set [1], in data set [2] and in data set [3] was “inactive” throughout.
For `C=C(CO)[C@@]12O[C@@H]1[C@@]1(C)C(=C[C@@H]2OC(C)=O)C=C[C@@H](O)[C@@H]1C`, the inhibition result in data set [1], in data set [2] and in data set [3] was “inactive” each time.
In the case of `C=C(CO)c1ccc2c(c1C)[C@@H](C)C[C@H](O)C2=O`, the inhibition entry in data set [1], in data set [2] and in data set [3] was “inactive” each time.
As for `C=C(CO)c1ccc([C@@H](C)C[C@@H](O)CO)c(C)c1` (relative stereo), the inhibition entry in data set [4] is “Active”. In addition, the inhibition result in data set [1], in data set [2] and in data set [3] was “inactive” in each case. For the same compound, the Activity entry in the data set on HEK293 is “Non-Toxic”.
Regarding `C=C(CO)[C@@]12O[C@@H]1[C@@]1(C)C(=C[C@@H]2O)[C@H](O)CC[C@@H]1C`, the inhibition result in data set [1], in data set [2] and in data set [3] was “inactive” each time.
For the compound `C=C(CO)[C@]12O[C@H]1[C@]1(C)C(=C[C@H]2OC(C)=O)CCC[C@H]1C`, the inhibition result in data set [1], in data set [2] and in data set [3] was “inactive” in each case.
Take `C=C(CO)[C@H]1C[C@@]2(C)C(=C[C@@H]1O)C[C@H](O)C[C@@H]2C`: the inhibition result in data set [1], in data set [2] and in data set [3] was “inactive” each time.
Regarding `C=C(CO)[C@@]12O[C@@H]1[C@@]1(C)C(=CC2=O)C[C@H](O)C[C@@H]1C`, the inhibition entry in data set [1], in data set [2] and in data set [3] was “inactive” each time.
Consider `C=C(CO)[C@@H]1CC=C2C[C@@H](O)[C@H](O)[C@@H](C)[C@]2(C)C1` (relative stereo), for which the inhibition result in data set [1], in data set [2] and in data set [3] was “inactive” each time.
